Source: patent publication US20250082787A1, “ALGINIC ACID-BASED INJECTABLE HYDROGEL SYSTEM” (National Cancer Center, priority 2018, published 2025)

Assays:
[1] = 2 to 100 μM in distilled water, λex=720 nm
Protocol: Before developing a surgical marker using indocyanine green and human serum albumin conjugate, in order to determine the appropriate concentration of indocyanine green and human serum albumin conjugate, the two substances were mixed by each concentration to observe change in fluorescence (λex=720 nm) and absorbance.
3 mL of distilled water was added to 1.5 mg of indocyanine green (ICG, purchased from Sigma-Aldrich) and dissolved by stirring to prepare a high concentration of indocyanine green solution. Distilled water was added to the high concentration of indocyanine green solution and mixed through stirring to prepared a 2 to 100 μM solution.

[2] = Persistence of fluorescence after subcutaneous injection in nude mouse (IVIS fluorescence image); type: in vivo
Protocol: In order to see the fluorescence persistence of the alginic acid hydrogel containing indocyanine green-human serum albumin in a nude mouse, it was injected in the form of a gel subcutaneously to the nude mouse through a dual syringe, and then the labeling performance over time was photographed with a fluorescent image device (IVIS Lumina XR, Xenogen Corporation-Caliper, CA, USA). Three solutions to be injected into the animal model were prepared in the same manner as in Preparation Examples 7 to 9. FIG. 7 is a schematic diagram of injecting an alginic acid hydrogel containing indocyanine green-human serum albumin subcutaneously to a nude mouse using a dual syringe.
The solutions of Preparation Examples 7 to 9 were injected subcutaneously to a nude mouse, respectively so that the total volume was 100 μL using a dual syringe.

With `CC1(C)C(/C=C/C=C/C=C/C=C2\N(CCCCS(=O)(=O)O)c3ccc4ccccc4c3C2(C)C)=[N+](CCCCS(=O)(=O)[O-])c2ccc3ccccc3c21` [indocyanine green] the “concentration up to which maximum fluorescence intensity increased” value [1] was “about 20 μM”, the “time fluorescence was maintained / emitted (FIG. 8)” value ([2]; 100 μL subcutaneous, nude mouse, λex=780 nm, λem=845 nm) was “about one” and the “time at which fluorescence (ROI value) was greatest” value ([2]; FIG. 10A, nude mouse) was 6 h. For the same compound, the “time in which fluorescence signals almost disappeared” value ([2]; FIG. 10C, nude mouse) was 48 h, the “fluorescence remaining compared to immediately after injection” value ([2]; ROI value, when one day passed) was 16% and the “time after which injected solution spread and disappeared at injection site (FIG. 9)” value ([2]; appearance of injected site, nude mouse) was “about 24 hours”.
